Results published in the NIST ThermoML archive (doi:10.1021/acs.jced.9b00001).
Several values for one entry are separate records, joined by “and”; a condition that tells them apart may be missing. Equal values may be shown once.

Conditions: Liquid, Closed cell (Static) method

FC(F)(F)/C=C/Cl [(E)-1-chloro-3,3,3-trifluoroprop-1-ene]
Conditions | vapor or sublimation pressure
253.17 K | 17.85 kPa
257.16 K | 22.05 kPa
260.17 K | 25.84 kPa
263.21 K | 30.13 kPa
267.04 K | 36.26 kPa and 36.26 kPa
270.14 K | 41.85 kPa
273.14 K | 47.91 kPa
277.11 K | 57.02 kPa
280.14 K | 64.83 kPa
283.09 K | 73.21 kPa
287.12 K | 86.04 kPa
290.14 K | 96.6 kPa
290.16 K | 96.73 kPa
293.09 K | 108.04 kPa
293.17 K | 108.4 kPa
297.15 K | 125.37 kPa
297.16 K | 125.42 kPa
300.15 K | 139.48 kPa
303.16 K | 154.83 kPa
307.16 K | 177.3 kPa
310.15 K | 195.73 kPa
313.15 K | 215.48 kPa
317.16 K | 244.36 kPa
320.16 K | 267.95 kPa
323.15 K | 293.08 kPa
323.25 K | 293.99 kPa
323.36 K | 295.01 kPa
327.16 K | 329.62 kPa
330.15 K | 359.02 kPa
333.14 K | 390.34 kPa and 390.35 kPa
333.15 K | 390.53 kPa
337.15 K | 435.75 kPa
340.15 K | 472.19 kPa
343.13 K | 510.48 kPa
343.15 K | 510.8 kPa and 510.94 kPa
343.19 K | 511.2 kPa
347.15 K | 566.08 kPa
350.16 K | 610.55 kPa
353.18 K | 657.68 kPa and 657.72 kPa
353.19 K | 657.8 kPa and 657.95 kPa
357.16 K | 724.03 kPa
360.16 K | 777.18 kPa
363.17 K | 833.48 kPa
363.2 K | 834.12 kPa
363.23 K | 834.57 kPa and 835.18 kPa
367.17 K | 913.02 kPa
370.17 K | 976.1 kPa
373.17 K | 1042.6 kPa and 1043.1 kPa
373.19 K | 1043.2 kPa and 1043.3 kPa
377.15 K | 1136.1 kPa
380.15 K | 1210.4 kPa
383.2 K | 1289.7 kPa
383.21 K | 1289.9 kPa
383.22 K | 1290.5 kPa and 1290.6 kPa
387.16 K | 1398.3 kPa
390.15 K | 1484.8 kPa
393.17 K | 1576.2 kPa
393.2 K | 1577.7 kPa
393.21 K | 1577.4 kPa and 1578 kPa
397.18 K | 1704 kPa
397.22 K | 1705.7 kPa
400.23 K | 1806.9 kPa
400.24 K | 1806.7 kPa
403.14 K | 1908.4 kPa
403.15 K | 1909 kPa
403.22 K | 1911.4 kPa and 1911.9 kPa
403.26 K | 1912.9 kPa
407.13 K | 2055.5 kPa
408.25 K | 2098.3 kPa
410.17 K | 2173.3 kPa
413.1 K | 2291.7 kPa
413.18 K | 2294.5 kPa
413.19 K | 2294.6 kPa and 2295.1 kPa and 2294.9 kPa
417.18 K | 2463.9 kPa
418.23 K | 2510.4 kPa
420.13 K | 2595.8 kPa
423.15 K | 2735.4 kPa and 2736 kPa
423.18 K | 2737.1 kPa
423.19 K | 2737.5 kPa
427.19 K | 2932.7 kPa
430.25 K | 3090.6 kPa
